Common to all, as to assay: growth of human tumour cells (NCI), 48 h
For assay [1], the system named is HOP-62.
For assay [2], the system named is SR.
The test system of assay [3] is UACC-257.
Assay [4] concerns SK-OV-3.
Assay [5] has as its system K562.
Assay [6] concerns NCI-H226.
Assay [7] relates to NCI-H460.
In assay [8] the test system is MDA-MB-231.
Assay [9] has as its system LOX IMVI.
Assay [10] relates to OVCAR-3.
In assay [11] the test system is NCI-H23.
Assay [12] relates to SNB-19.
Assay [13] has as its system HCT-15.
For assay [14], the system named is CAKI-1.
In assay [15] the test system is HCC 2998.
Assay [16] deals with BT-549.
In assay [17] the test system is SK-MEL-28.
The test system of assay [18] is HL-60.
Assay [19] deals with TK-10.
The test system of assay [20] is NCI-H522.

This is an account of results in ChEMBL document CHEMBL1201862, “PubChem BioAssay data set” (2004).

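Where inhibition never reached the appropriate level, the endpoint shown equals the highest concentration tested. Otherwise, values were interpolated linearly from a five-concentration, 48-hour dose response in 96-well plates. Abbreviation: GI50, concentration required for 50% inhibition of growth.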 Activity calls are given as the source filed them. No stated cut-off is given here; in the data, active = GI50 up to about 1.1 µM and inactive = higher.

For `CCc1n[nH]c(=O)n1N`, the GI50 in [1], in assay [2], in assay [3], in assay [4], in [5] and in [6] was > 100 µM (inactive) throughout. Moreover, the GI50 in assay [7], in assay [8], in assay [9], in [10], in assay [11] and in assay [12] was > 100 µM (inactive) in each case. Further, the GI50 in assay [13] is over 100 µM; in assay [14] it was > 100 µM (inactive); in assay [15], > 100 µM (inactive); in assay [16], > 100 µM (inactive); in assay [17], > 100 µM (inactive); in assay [18], > 100 µM (inactive). Besides, the GI50 in assay [19] and in assay [20] was > 100 µM (inactive) each time.
For `CC1OC(OC2C[C@](O)(C(=O)CF)Cc3c(O)c4c(c(O)c32)C(=O)c2ccccc2C4=O)CC(N)C1O` (stereo not given in full), the GI50 was < 0.01 µM (active) in [1]; < 0.01 µM (active) in [2]; 0.0794 µM (active) in assay [3]; 0.0194 µM (active) in assay [4]; < 0.0153 µM (active) in assay [5]; < 0.01 µM (active) in [6]. For the same molecule, the GI50 in [7] is < 0.01 µM (active); in assay [8], 0.043 µM (active); in assay [9], < 0.01 µM (active); in assay [10], 0.233 µM (active); in [11] it was < 0.01 µM (active); in assay [12] it was < 0.014 µM (active). The GI50 in assay [13] is 0.0588 µM; in [14], < 0.01 µM (active); in assay [15] it was 0.163 µM (active); in assay [16] it was 0.131 µM (active); in assay [17], 0.177 µM (active); in [18] it was < 0.01 µM (active). The GI50 is 0.1 µM (active) in assay [19] and 0.0202 µM (active) in assay [20].
`N=C(N)NS(=O)(=O)c1ccc(NC(=O)c2cccc3c(NNc4ccc(S(=O)(=O)N=C(N)N)cc4)c4ccccc4nc23)cc1`: the GI50 in assay [1] is > 100 µM (inactive); in assay [2], 32.6 µM (inactive); in assay [3], > 100 µM (inactive); in [4] it was > 100 µM (inactive); in assay [5], 28.1 µM (inactive); in assay [6], 91.8 µM (inactive). For the same molecule, the GI50 in assay [7] is 32.7 µM (inactive); in assay [8], 46.6 µM (inactive); in assay [9], 34.8 µM (inactive); in assay [10] it was 38.2 µM (inactive); in [11], 52.4 µM (inactive); in assay [12] it was 76.7 µM (inactive). The GI50 in assay [13] is 37.8 µM; in assay [14], > 100 µM (inactive); in [15], 90.6 µM (inactive); in assay [16], 33.3 µM (inactive); in assay [17], 37.2 µM (inactive); in assay [18], 35.5 µM (inactive). For the same molecule, the GI50 is > 100 µM (inactive) in assay [19] and 25.6 µM (inactive) in [20].
With `Cc1cc(C)c2c(=O)n(CC(O)CN3CCN(c4ncccn4)CC3)sc2n1` (stereo not given), the GI50 in assay [1] is 20.3 µM (inactive); in assay [2] it was 4.79 µM (inactive); in assay [3], 16.7 µM (inactive); in assay [4], 18.7 µM (inactive); in assay [5], 22.3 µM (inactive); in assay [6], 96.8 µM (inactive). In addition, the GI50 in assay [7] is 17.5 µM (inactive); in assay [8] it was 17.5 µM (inactive); in assay [9] it was 17.1 µM (inactive); in assay [10], 19.4 µM (inactive); in assay [11] it was 17.7 µM (inactive); in assay [12] it was 64.3 µM (inactive). Also, the GI50 was 18.8 µM in assay [13]; 20 µM (inactive) in assay [14]; 18.9 µM (inactive) in [15]; 18.4 µM (inactive) in [16]; 17 µM (inactive) in [17]; 16.6 µM (inactive) in [18]. Also, the GI50 in assay [19] was 18.2 µM (inactive); in [20], 13 µM (inactive).
In the case of `O=C(/C=C(\Nc1ccccc1O)c1ccc(Br)cc1)C(Cl)(Cl)Cl`, the GI50 in [1] is 13.6 µM (inactive); in assay [2], 13.7 µM (inactive); in [3], 7.26 µM (inactive); in [4], 1.07 µM (active); in assay [5], 14.2 µM (inactive); in assay [6], 12.1 µM (inactive). For the same molecule, the GI50 in assay [7] is 3.21 µM (inactive); in assay [8] it was 6.95 µM (inactive); in assay [9] it was 17.9 µM (inactive); in assay [10], 4.34 µM (inactive); in assay [11], 12.6 µM (inactive); in assay [12] it was 6.87 µM (inactive). The GI50 in assay [13] was 12.2 µM; in assay [14], 6.3 µM (inactive); in assay [15], 2.1 µM (inactive); in [16], 15 µM (inactive); in assay [17] it was 11 µM (inactive); in assay [18] it was 2.36 µM (inactive). In addition, the GI50 in assay [19] is 6.95 µM (inactive); in assay [20], 14.9 µM (inactive).
As to `C[C@@]12C(=O)OC(=O)[C@]1(C)[C@H]1CC[C@@H]2O1` [CANTHARIDIN], the GI50 in assay [1] was 2.44 µM (inactive); in [2] it was 2.61 µM (inactive); in assay [3] it was 2.65 µM (inactive); in assay [4], 2.17 µM (inactive); in assay [5], 2.3 µM (inactive); in assay [6], 1.06 µM (active). Moreover, the GI50 in assay [7] is 2.72 µM (inactive); in [8], 1.33 µM (inactive); in [9], 2.23 µM (inactive); in assay [10] it was 0.759 µM (active); in [11] it was 5.07 µM (inactive); in assay [12], 1.1 µM (active). Further, the GI50 in assay [13] is 4.06 µM; in assay [14], 0.791 µM (active); in assay [15], 1.53 µM (inactive); in [16] it was 1.7 µM (inactive); in [17], 3.48 µM (inactive); in assay [18], 1.63 µM (inactive). In addition, the GI50 in assay [19] is 0.313 µM (active); in assay [20], 0.935 µM (active).
For `CC1=C(C(=O)NCC(C)O)CC(C(=O)NCC(C)O)=C(C)N1` (stereo not given), the GI50 was > 100 µM (inactive) in assay [1]; > 100 µM (inactive) in [2]; > 100 µM (inactive) in assay [3]; > 100 µM (inactive) in assay [4]; > 100 µM (inactive) in [5]; 89.7 µM (inactive) in assay [6]. In addition, the GI50 in [7] was > 100 µM (inactive); in [8] it was 46.5 µM (inactive); in assay [9], > 100 µM (inactive); in assay [10] it was > 100 µM (inactive); in assay [11] it was > 100 µM (inactive); in [12], > 100 µM (inactive). For the same molecule, the GI50 in assay [13] is over 100 µM; in [14] it was > 100 µM (inactive); in assay [15] it was > 100 µM (inactive); in [16] it was > 100 µM (inactive); in [17] it was > 100 µM (inactive); in assay [18], > 100 µM (inactive). Also, the GI50 in [19] and in assay [20] was > 100 µM (inactive) each time.
